# Assay results taken from US12616713B2, “Methods for enhancing vascular density” (priority 2016, dated 2026).
# How the values were obtained:
# [1] = system: HAECs; test: Spheroid sprouting assay, HAECs; format: cell-based, human; conditions: VEGF 50 ng/mL
# Experimental: ECs spheroids were generated as described previously (Korff and Augustin, 1998, J Cell Biol 143, 1341-1352). ECs (1000 cells per spheroid) were suspended in EGM-2 medium containing 20% methocel (viscosity: 4000 cps, Sigma) and seeded in non-adherent round-bottom 96-well plates (Sigma). Under these conditions all suspended cells contributed to the formation of a single spheroid. The spheroids were harvested after 24 h embedded into collagen gels. Sprouting was initiated by adding C2C12 CM or EBM-2 medium containing VEGF (50 ng/mL). NMN (0.5 mM), NaHS (0.1 mM), DAPT (20 μM, Cayman Chemical) or SU5416 (10 μM, Sigma) were added to the media wherever mentioned. Angiogenic activity was quantified by measuring the sprout length that had grown out of each spheroid analyzing 8-10 spheroids per group.
# [2] = molecular target: T1, CD38 (Homo sapiens, UniProt P28907); conditions: in vitro (Esande et al. 2013); cited from earlier work
# T1 sequence (P28907 1-300): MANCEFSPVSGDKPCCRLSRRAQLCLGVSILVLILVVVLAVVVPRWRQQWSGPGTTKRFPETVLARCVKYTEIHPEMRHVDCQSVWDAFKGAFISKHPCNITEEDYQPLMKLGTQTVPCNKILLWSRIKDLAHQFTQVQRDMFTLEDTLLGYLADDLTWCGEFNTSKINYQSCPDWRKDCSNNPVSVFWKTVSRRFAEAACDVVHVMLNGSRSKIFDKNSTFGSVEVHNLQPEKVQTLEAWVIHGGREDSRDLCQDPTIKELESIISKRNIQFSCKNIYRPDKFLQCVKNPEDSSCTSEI
# [3] = system: SIRT1; test: SIRT1 protein levels in HUVECs (Western blot); format: cell-based, human; conditions: NaHS 0.1 mM and/or NMN 0.5 mM
# Experimental: SDS-PAGE and Western blot analysis were performed according to standard procedures and detected with the ECL detection kit (Bio-rad, Australia). For Western blot analysis antibodies directed against SIRT1 (Sigma), SIRT3 (CST), SIRT6 (SantaCruz), eNOS (Cell Signaling Technology or CST), cleaved Notch1 (CST), total OXPHOS cocktail (Abcam), PGC-1α (Millipore), VEGF (Abcam), VEGFR2 (Abcam), phospho-VEGFR2 (Millipore), Actin (Cell Signaling Technology), Tubulin (Sigma), 14-3-3 (Cell Signaling Technology), GAPDH (SantaCruz) were used. Quantification of band intensities by densitometry was carried out using ImageJ software.
# [4] = system: NAD^+; test: NAD+ levels in HUVECs; format: cell-based, human; conditions: increasing doses of NaHS, 24 hrs
# Experimental: Levels of NAD^+ and NADH levels were measured in EC and muscle homogenates using commercially available kit (NAD-NADH Glo, Promega) according to manufacturer's instructions. Alternatively, NAD^+ levels in muscle and liver were measured by assay in-house developed method (Uddin et al., 2016, Front Pharmacol 7, 258). In brief, liver and gastrocnemius samples were homogenized in extraction buffer (10 mM Tris-HCl, 0.5% TritonX-100, 10 mM Nicotinamide, pH7.4) and then centrifuged (12,000×g for 5 min at 4° C.), after which an aliquot of supernatant was taken for protein quantification. After phenol:chloroform:isoamylalcohol (25:24:1) and chloroform extractions the supernatant was separated in two aliquots. One was used to measure total NAD. The other aliquot was acidified with HCl, and then neutralized with NaOH on ice to quantify NAD^+. Samples were mixed in a 96-well plate samples were mixed with alcohol dehydrogenase (ADH) at room temperature. Total NADH and NAD^+ were quantified using a Bio-Rad Imark microplate reader.
# [5] = system: HUVECs; test: Wound scratch assay, HUVECs; format: cell-based, human; conditions: 6 h
# Experimental: ECs were cultured until forming a confluent monolayer and a scratch was made using a 200 μL pipette tip. Then the cells were allowed to migrate+/−NaHS (0.1 mM) and +/−NMN (0.5 mM) in EGM-2 medium for 6 hrs. Images were taken at the same location using a brightfield inverted microscope (Olympus 2467) every 2 h. The area of gap closure was calculated using ImageJ software. In some experiments, HUVECs were transduced with Scr or SIRT1 siRNA and cultured until forming a confluent monolayer. The cells were exposed to H2O2 (150 μM) for 1 h and a scratch was made using a 200 μL pipette tip. Then the cells were allowed to migrate with PBS (vehicle), NaHS (100 μM) and/or NMN (500 μM) in EGM-2 medium for 6 h. Images were taken at the same location using a brightfield inverted microscope (Olympus 2467) every 2 h. The area of gap closure was calculated using ImageJ software.
# [6] = system: HUVECs; test: Seahorse analysis of oxygen consumption rate; format: cell-based, human; conditions: NaHS 100 μM, NMN 500 μM
# Experimental: Oxygen consumption rates were measured in accordance with manufacturer instructions using Seahorse XF96 analyzer (Seahorse Bioscience). Briefly, 40,000 HUVECs were plated onto XF96 plates and incubated overnight at 37° C./5% CO2. Next day, the media was replaced with XF assay media (DMEM), supplemented with glucose (1 g/L), glutamate (2 mM) and pyruvate (1 mM) and the pH was adjusted to 7.4. NaHS (100 μM) and/or NMN (500 μM) were added at the start of the experiment. Oxygen consumption measurements were made approximately every 8 minutes under basal conditions, and after the addition of oligomycin (1 μM). Experiments were replicated in six wells and averaged for each experimental condition.
# [7] = molecular target: NAMPT (Homo sapiens, UniProt P43490); conditions: in vitro (Wang et al. 2014); cited from earlier work
# NAMPT, sequence (P43490 whole entry, species assumed): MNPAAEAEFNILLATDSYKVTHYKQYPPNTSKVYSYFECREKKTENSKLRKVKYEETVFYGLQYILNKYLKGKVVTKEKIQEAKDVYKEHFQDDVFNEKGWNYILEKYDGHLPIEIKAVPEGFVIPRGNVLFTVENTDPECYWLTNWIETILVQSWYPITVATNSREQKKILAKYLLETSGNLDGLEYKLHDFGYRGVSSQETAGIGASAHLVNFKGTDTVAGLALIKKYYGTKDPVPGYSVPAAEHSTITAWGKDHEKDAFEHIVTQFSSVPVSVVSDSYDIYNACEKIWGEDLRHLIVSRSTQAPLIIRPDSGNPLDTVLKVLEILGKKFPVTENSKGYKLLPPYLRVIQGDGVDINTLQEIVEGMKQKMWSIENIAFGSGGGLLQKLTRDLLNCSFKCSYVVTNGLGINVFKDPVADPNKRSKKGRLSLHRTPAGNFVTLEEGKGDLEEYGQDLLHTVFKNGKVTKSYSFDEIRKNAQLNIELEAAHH
smiles,measurement,setting,value
"Cc1cc(C)c(/C=C2\C(=O)Nc3ccccc32)[nH]1 [SU5416, reference compound]",sprouting of spheroids,[1]; SU5416 10 μM,completely blocked sprouting
"O=c1c(O)c(-c2ccc(O)c(O)c2)oc2cc(O)cc(O)c12 [quercetin, 2-(3,4-dihydroxyphenyl)-3,5,7-trihydroxy-4H-chromen-4-one]",CD38 activity,[2],inhibitors of CD38 activity in vitro
"O=c1cc(-c2ccc(O)cc2)oc2cc(O)cc(O)c12 [apigenin, 5,7-dihydroxy-2-(4-hydroxyphenyl)-4H-1-benzopyran-4-one]",CD38 activity,[2],inhibitors of CD38 activity in vitro
"C[C@H](NC(=O)Cc1cc(F)cc(F)c1)C(=O)N[C@H](C(=O)OC(C)(C)C)c1ccccc1 [DAPT, N—[N-(3,5-Difluorophenacetyl)-L-alanyl]-S-phenylglycine t-butyl ester, reference compound]",sprout length of spheroids,"[1]; DAPT 20 μM, NT or SIRT1 siRNA",increased sprout length irrespective of SIRT1 levels
"[Na+].[SH-] [NaHS, sodium hydrosulfide]",SIRT1 protein levels,[3],increased SIRT1 protein levels
same,intracellular NAD^+ levels in ECs,[4],raised intracellular NAD^+ levels in ECs in a dose dependent manner
same,cell migration in a scratch assay,"[5]; NT or SIRT1 siRNA HUVECs, NaHS 0.1 mM, independent of VEGF but dependent on SIRT1",increased cell migration
same,cell migration (percentage of closed gaps),"[5]; Scr or SIRT1 siRNA HUVECs, H2O2 150 μM 1 h, NaHS 100 μM and/or NMN 500 μM",increased cell migration in a SIRT1-dependent manner
same,basal OCR,[6],lowered the basal OCR
OC(CNc1ccccc1)Cn1c2ccc(Br)cc2c2cc(Br)ccc21 (stereo not shown) [P7C3],activity of NAMPT,[7],enhances activity of NAMPT in vitro
